# Assays:
# in vivo = settings: rat, 10 mg/kg
# Method: Method: Adult male Sprague/Dawley rats (anesthetized with ethylcarbamate) were given intra-rectal aqueous microenemas. Microenemas are defined as small volume (0.3 ml) aqueous solutions containing drug/adjuvant compounds, administered with a 1 cc syringe at an intra-rectal depth of 2.5 cm. Bioavailabilities versus intravenous administration were calculated as a measure of drug delivery according to the following formula: [formula] wherein
# [1] = rat, in vivo; for % Bioavailability ± SEM, Gentamicin: 90 min
# Method: (§1) Microenemas are defined as small volume (0.3 ml) aqueous solutions containing drug/adjuvant compounds, administered with a 1 cc syringe at an intra-rectal depth of 2.5 cm.
# The cefoxitin or gentamicin was administered as sodium cefoxitin or gentamicin sulfate at 10 mg/kg body weight. The adjuvants were administered at 20 mg/kg body weight and n represents the number of animals.
# [2] = rat, in vivo, 10 mg/kg, 1.5 h
# Method: as §1
# AUC means area under serum drug level curve from t=0 minutes to t=90 minutes.
# Gentamicin bioavailability: Concentration curves for chlorpromazine and perphenazine in rat microenema rectal delivery system.
Compound,"% Bioavailability ± SEM, Gentamicin [1] [%]",other results
"CO[C@@]1(NC(=O)Cc2cccs2)C(=O)N2C(C(=O)O)=C(COC(N)=O)CS[C@@H]21 [Cefoxitin, (6R-cis)-3-[[(Aminocarbonyloxy]methyl]-7-methoxy-8-oxo-7-[(2-thienylacetyl))amino]-5-thia-1-azabicyclo [4.2.0]oct-2-ene-2-carboxylic acid]",,bioavailability at 1.5 h (in vivo): 2 ± 0.6%
"CN(C)CCCN1c2ccccc2Sc2ccc(Cl)cc21 [Chlorpromazine, chlorpromazine]",107 ± 6.2,
"OCCN1CCN(CCCN2c3ccccc3Sc3ccc(Cl)cc32)CC1 [Perphenazine, perphenazine]",100 ± 8.3,
CN1CCN(CCCN2c3ccccc3Sc3ccc(Cl)cc32)CC1 [Prochlorperazine],76 ± 10.9,
"CSc1ccc2c(c1)N(CCC1CCCCN1C)c1ccccc1S2 (stereo not shown) [Tiorioazine, thioridazine]",115 ± 11.5,
Gentamicin,,"% Bioavailability ± SEM, Gentamicin (adjuvant: None) ([1]; 10 mg/kg, 1.5 h): 1 ± 0.7%; Control bioavailability (without adjuvant) [2]: 1 ± 0.7%"
